Measured values from patent publication US6459001B1 (Aventis Pharma S.A., priority 1997, dated 2002).

Key:
[1] = test system: bone resorption (skullcaps of new-born mice); experiment: Test of mouse calvarium: bone resorption by release of 45Ca from skullcaps of new-born mice, ex-vivo; conditions: Mus musculus, inhibition of bone resorption (45Ca release) in half-calvaria, 48 hours contact, read-out: Mouse cavarium % inhibition at 10 μM
Source text: 2—Test of Mouse Calvarium
Injection of a tracer dose of ^45Ca (CaCl2) to gestating female mice in order to study bone resorption by measuring the release of ^45Ca from the skullcaps of new-born mice.
Determination of the activity of a molecule on bone resorption, ex-vivo study.
Vehicle: DMSO, H2O/BSA (0.1%)
Dose: Variable ([…] in screening).
Echistatin (ref. H-9010-BACHEM)
^45Ca in the form of an aqueous solution of CaCl2—ref. CES3 AMERSHAM or NEZ-013 NEN.
Vehicle: Physiological serum
Dose: 25 μCi/mouse/0.4 ml
CMRL 1066 with phenol red (ref. 041-01535 M/GIBCO) supplemented by 0.1% BSA and penicillin/streptomycin.
1) Injection of ^45Ca to Gestating Mice (OF1, Strain: Swiss)
a) Preparation of the Labelled Solution:
190 μl of the mother solution of calcium at 2 mci/ml is added to 6 ml of physiological serum.
On the 17th day of gestation the mice receive 400 μl of this solution by intravenous route, that is 25 μCi/mouse.
2) Removal of the Tissue (Skullcap (Calvarium))
Six days after their birth the new-born mice are decapitated, then the head is recovered, and the skin is incised from the nape to the front. The skullcap is removed by cutting it out with scissors, and using a punch two exactly identical half-calvaria (one on the left and one on the right) are cut from the parietal bones. One will serve as the control, the other will be used to test the product to be studied.
Each half calvarium is placed in a well of a 24-well plate, containing 1 ml of medium, on a 100 μm polyethylene and nylex support, in order to avoid all contact with the bottom of the well.
After 24 hours, the polyethylene supports carrying the calvaria are transferred into new 24-well plates containing 1 ml of fresh medium and the products to be tested or their solvents. 200 μl of medium from the first plates is removed from each well and a first count of the radioactivity is carried out (value A).
This change of medium allows all the mechanical stress associated with the removal to be eliminated.
48 hours after putting the tissues in contact with the studied products, 200 μl of medium is removed from each well and counted (value B), so as to determine the quantity of ^45Ca released from the medium during the so-called resorption phase.
The calvarium is then completely demineralized in 1 ml of 5% trichloracetic acid and after digestion, 200 μl is also removed and counted so as to determine the quantity of calcium remaining in the bone (value C). Expression of the results
A % of bone resorption is calculated for each half-calvarium (each well) in the following manner:
% bone resorption=dpm B/dpm (A+B+C)×100
The sum of dpm A+B+C represents the quantity of ^45Ca incorporated in each bone part on the day of removal.
In order to measure the effect of a product, the ratio of the percentage of bone resorption of the treated well and of the corresponding control well is calculated for each point. The value found called the resorption index is comprised between 0 and 1 if the product inhibits bone resorption and is >1 if the product potentializes it. The average of the 6 indices (since there are 6 points/group) of each product is then calculated which gives one index/product. If this index is subtracted from the value 1, the inhibitory power of the product is obtained, which can be expressed as a percentage.
Furthermore a statistical test (Student T-test) is carried out by comparing point/point the individual resorption indices.

[2] = target: human αvβ3 receptor (Homo sapiens, UniProt P05106+P06756); experiment: Displacement of the binding Vitronectin/Vitronectin receptor (αvβ3), competition test; conditions: human vitronectin coated plates, 3 hours at ambient temperature, read-out: Competition test Vn/VR (αvβ3) binding IC50 en
Protocol: 1—Study of the Products of the Invention on the Displacement of the Binding: Vitronectin/Vitronectin Receptor (αvβ3) […]
MaxiSorp 96-well plates are coated overnight at 4° C., with 100 μl of human Vitronectin (cf Yatohgo et al. Cell., Structure and fraction 13: 281-292 (1988)) at 2 μg/ml, (Dilution in coating buffer).
The next day, the wells are emptied and the ligands (Vitronectin) are then fixed (see fixing buffer) for one hour at ambient temperature under gentle agitation.
The wells are washed six times (see washing buffer), then the following are added to each well and in this order:
40 μl of incubation buffer, 10 μl of the dilution of the product to be tested, (the products are diluted in a 50/50 mixture of DMSO-H2O) 50 μl of human αvβ3 receptor (cf Pytela et al. Methods Enzymol (1987) 144:475) (dilution in incubation buffer, to be adapted according to the receptor batch and according to the ligand).
The ligand, the human αvβ3 receptor and the products to be studied are incubated for 3 hours at ambient temperature under gentle agitation.
The wells are again washed six times, then incubated for 2 hours at ambient temperature under gentle agitation, in the presence of 100 μl of anti-receptor, 4B12-HRP antibody coupled to a peroxidase (the 4B12-HRP antibody is diluted in an incubation buffer. The dilution is to be adapted according to the receptor batch).
This kit contains a bottle A of substrate (3,3′,5,5′-tetramethylbenzidine at 0.4 g/l) and a bottle B (H2O2 at 0.02% in a citrate/citric acid buffer). Extemporaneously, a volume of A is mixed with a volume of B, then the reaction mixture is distributed at a rate of 100 μl/well. The enzymatic reaction develops over […] for Vitronectin/αvβ3, then its development is stopped by the addition of 100 μl of 1M phosphoric acid. The optical density is measured at 450 nm. […]
coating buffer: Carbonate 0.05 M, NaOH pH 9.6 fixing buffer: PBS containing 0.5% BSA (pH 7.4) washing buffer: PBS containing 0.05% Tween 20 (pH 7.4)
Expression of the Results:
The following curve is traced: the percentage of binding of the human vitronectin as a function of the logarithm of the concentration of each product tested.
For each product the IC50 is determined according to the following formula:
BO=Maximum binding in the absence of any product
Bmin=Minimum binding in the presence of the highest concentration of product.

| Compound | inhibition at 10 µM [1] | IC50 [2] |
| --- | --- | --- |
| COc1c(OCCC(=O)O)cc2c(c1OC)C1=C(CCC1)C(=NNC1=NCCN1)CC2 [EX. 14, 3-(4((4,5-Dihydro-1H-imidazolin-2-yl)hydrazono)-9,10-dimethoxy-1,2,3,4,5,6-hexahydro-8-benz(e)azulenyl)oxy)-propanoic Acid] | 14% | 0.75 µM |
| O=C(O)CCCOc1ccc2c(c1)C1=C(CCC1)C(=NNC1=NCCN1)CC2 [EX. 20, 4-((4((4,5-Dihydro-1H-imidazol-2-yl)hydrazono)-1,2,3,4,5,6-hexahydro-9-benz(e)azulenyl)oxy)-butanoic Acid] | 11% | 0.079 µM |
